Measured values taken from ChEMBL document CHEMBL1147084, “From the Cover: Antipsychotic drug-induced weight gain mediated by histamine H1 receptor-linked activation of hypothalamic AMP-kinase” (Proc Natl Acad Sci U S A, 2007).
Calls of active or inactive are those of the source. The rule behind the calls is not given here.

How the values were obtained:
[1] = tested on: Hypothalamus; assay: Increase in phospho-AMPK levels in H1RKO mouse hyphalamic slices at 500 nM after 30 mins by Western blotting; assay type: functional, tissue-based
[2] = species: Mus musculus; assay: Orexigenic activity in H1RKO mouse; assay type: functional, organism-based
[3] = biological target: Histamine H1 receptor (Rattus norvegicus, UniProt P31390); assay: biochemical
Sequence of Histamine H1 receptor (P31390 whole entry): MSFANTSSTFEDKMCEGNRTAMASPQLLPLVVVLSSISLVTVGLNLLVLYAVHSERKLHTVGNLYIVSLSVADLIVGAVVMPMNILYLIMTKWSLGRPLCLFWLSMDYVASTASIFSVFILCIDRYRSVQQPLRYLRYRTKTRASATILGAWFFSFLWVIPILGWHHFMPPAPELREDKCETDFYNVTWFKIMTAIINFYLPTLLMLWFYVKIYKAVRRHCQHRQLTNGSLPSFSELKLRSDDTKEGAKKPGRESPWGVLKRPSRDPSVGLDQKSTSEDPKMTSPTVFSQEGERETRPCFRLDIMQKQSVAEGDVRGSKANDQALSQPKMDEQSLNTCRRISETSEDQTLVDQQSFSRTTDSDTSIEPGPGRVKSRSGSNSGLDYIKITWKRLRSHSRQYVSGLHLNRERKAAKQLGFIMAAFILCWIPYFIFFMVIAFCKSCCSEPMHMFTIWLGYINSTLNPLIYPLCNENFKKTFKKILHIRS
Description: Displacement of [3H]mepyramine from H1R in rat brain

[4] = biological target: T1, Neuropeptide Y receptor type 1 (Homo sapiens) (UniProt P25929); assay: Binding affinity to neuropeptide Y receptor at 100 nM
T1 sequence (whole entry): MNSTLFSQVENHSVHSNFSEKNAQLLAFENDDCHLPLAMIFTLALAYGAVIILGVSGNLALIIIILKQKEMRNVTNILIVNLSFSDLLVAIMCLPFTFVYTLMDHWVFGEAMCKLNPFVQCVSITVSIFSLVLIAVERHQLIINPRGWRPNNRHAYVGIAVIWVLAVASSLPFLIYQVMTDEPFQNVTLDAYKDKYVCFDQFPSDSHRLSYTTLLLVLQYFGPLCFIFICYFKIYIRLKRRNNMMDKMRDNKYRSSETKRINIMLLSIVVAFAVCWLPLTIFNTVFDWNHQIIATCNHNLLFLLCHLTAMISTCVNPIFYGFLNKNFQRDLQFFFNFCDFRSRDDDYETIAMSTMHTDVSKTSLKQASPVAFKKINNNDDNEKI

[5] = Binding affinity to alphaMSH receptor at 10 nM
[6] = biological target: T1, Neuropeptide Y receptor type 1 (Homo sapiens); assay: Binding affinity to neuropeptide Y receptor at 10 nM
[7] = biological target: T2, Leptin receptor (Homo sapiens) (UniProt P48357); assay: Binding affinity to leptin receptor at 100 nM
T2 sequence (whole entry): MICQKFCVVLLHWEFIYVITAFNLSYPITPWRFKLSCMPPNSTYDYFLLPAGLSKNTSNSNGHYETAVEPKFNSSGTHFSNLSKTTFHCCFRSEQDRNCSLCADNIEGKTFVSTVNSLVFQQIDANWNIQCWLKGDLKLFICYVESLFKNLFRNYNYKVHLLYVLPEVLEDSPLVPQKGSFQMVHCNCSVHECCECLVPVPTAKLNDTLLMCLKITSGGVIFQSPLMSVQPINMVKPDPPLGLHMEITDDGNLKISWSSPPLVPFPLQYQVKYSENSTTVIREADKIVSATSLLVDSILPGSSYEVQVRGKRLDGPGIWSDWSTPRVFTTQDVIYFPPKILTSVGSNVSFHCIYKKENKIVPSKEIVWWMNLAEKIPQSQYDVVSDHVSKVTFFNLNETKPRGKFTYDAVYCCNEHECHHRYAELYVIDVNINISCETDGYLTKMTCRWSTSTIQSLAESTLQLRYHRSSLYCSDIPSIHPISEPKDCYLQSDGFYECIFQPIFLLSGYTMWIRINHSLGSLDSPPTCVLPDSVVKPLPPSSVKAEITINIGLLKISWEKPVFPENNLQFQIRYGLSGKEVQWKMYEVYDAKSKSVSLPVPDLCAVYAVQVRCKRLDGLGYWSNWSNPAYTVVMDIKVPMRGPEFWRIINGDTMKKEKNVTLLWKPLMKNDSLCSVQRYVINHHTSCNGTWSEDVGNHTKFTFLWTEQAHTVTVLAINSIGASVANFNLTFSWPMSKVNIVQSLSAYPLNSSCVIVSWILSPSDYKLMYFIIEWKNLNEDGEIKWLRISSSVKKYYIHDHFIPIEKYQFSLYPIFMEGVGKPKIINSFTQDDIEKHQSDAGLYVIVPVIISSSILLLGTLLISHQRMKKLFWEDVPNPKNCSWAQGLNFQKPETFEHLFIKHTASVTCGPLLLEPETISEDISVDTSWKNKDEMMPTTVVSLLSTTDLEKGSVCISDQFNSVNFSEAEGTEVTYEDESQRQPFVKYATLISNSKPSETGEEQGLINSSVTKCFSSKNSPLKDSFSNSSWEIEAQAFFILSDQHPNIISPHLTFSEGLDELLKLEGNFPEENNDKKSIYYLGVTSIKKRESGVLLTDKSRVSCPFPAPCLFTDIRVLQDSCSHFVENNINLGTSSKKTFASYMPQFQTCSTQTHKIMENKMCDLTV

[8] = biological target: T2, Leptin receptor (Homo sapiens); assay: Binding affinity to leptin receptor at 10 nM
[9] = Binding affinity to alphaMSH receptor at 100 nM
[10] = tested on: Mus musculus; assay: Increase in phospho-AMPK levels in intact H1RKO mouse hypothalamus at 3 mg/kg, ip after 3 hrs by Western blotting; assay type: functional, organism-based; parameters: dose 3 mg/kg
[11] = tested on: Mus musculus; assay: Increase in phospho-AMPK level in paraventricular hyphalamic nuclei intact H1RKO mouse at 3 mg/kg, ip after 3 hrs by immunohistochemistry; assay type: functional, organism-based; parameters: dose 3 mg/kg
[12] = tested on: Mus musculus; assay: Increase in phospho-AMPK levels in intact H1RKO mouse liver at 1 mg/kg, ip after 3 hrs by Western blotting; assay type: functional, organism-based; parameters: dose 1 mg/kg
[13] = tested on: Mus musculus; assay: Increase in phospho-AMPK level in arcuate hyphalamic nuclei intact H1RKO mouse at 1 mg/kg after 3 hrs by immunohistochemistry; assay type: functional, organism-based; parameters: dose 1 mg/kg
[14] = tested on: Mus musculus; assay: Increase in phospho-AMPK levels in intact H1RKO mouse hypothalamus at 1 mg/kg after 3 hrs; assay type: functional, organism-based; parameters: dose 1 mg/kg
[15] = tested on: Mus musculus; assay: Increase in cortical alpha-2AMPK levels in intact H1RKO mouse at 5 mg/kg after 3 hrs; assay type: functional
[16] = tested on: Mus musculus; assay: Increase in alpha-2AMPK levels in intact H1RKO mouse cerebellum at 5 mg/kg after 3 hrs; assay type: functional, organism-based; parameters: dose 5 mg/kg
[17] = species: Mus musculus; assay: Reversal of leptin-induced reduction in hyphalamic phospho-AMPK level in H1RKO mouse at 50 nM after 30 mins by Western blotting; assay type: functional, organism-based
[18] = tested on: Mus musculus; assay: Reversal of leptin-induced reduction in hyphalamic phospho-AMPK in H1RKO mouse at 5 mg/kg after 3 hrs by Western blotting; assay type: functional, organism-based; parameters: dose 5 mg/kg
[19] = tested on: Mus musculus; assay: Increase in alpha-2AMPK levels in intact H1RKO mouse cerebral cortex at 1 mg/kg after 3 hrs; assay type: functional, organism-based; parameters: dose 1 mg/kg
[20] = species: Mus musculus; assay: Reversal of insulin-induced reduction in hyphalamic phospho-AMPK level in H1RKO mouse at 50 nM after 30 mins by Western blotting; assay type: functional, organism-based
[21] = tested on: Mus musculus; assay: Increase in alpha-2AMPK levels in intact H1RKO mouse hypothalamus at 1 mg/kg after 3 hrs; assay type: functional, organism-based; parameters: dose 1 mg/kg
[22] = tested on: Mus musculus; assay: Increase in phospho-AMPK level in arcuate hyphalamic nuclei intact H1RKO mouse at 5 mg/kg after 3 hrs by immunohistochemistry; assay type: functional, organism-based; parameters: dose 5 mg/kg
[23] = tested on: Mus musculus; assay: Reversal of leptin-induced reduction in hyphalamic alpha-2AMPK activity in H1RKO mouse at 5 mg/kg; assay type: functional, organism-based; parameters: dose 5 mg/kg
[24] = tested on: Mus musculus; assay: Increase in phospho-AMPK levels in intact H1RKO mouse cerebellum at 1 mg/kg, ip after 3 hrs by Western blotting; assay type: functional, organism-based; parameters: dose 1 mg/kg
[25] = species: Mus musculus; assay: Reversal of histamine-induced reduction in hyphalamic phospho-AMPK level in H1RKO mouse at 200 nM after 30 mins by Western blotting; assay type: functional, organism-based
[26] = tested on: Mus musculus; assay: Increase in alpha-2AMPK levels in intact H1RKO mouse cerebellum at 1 mg/kg after 3 hrs; assay type: functional, organism-based; parameters: dose 1 mg/kg
[27] = tested on: Mus musculus; assay: Increase in phospho-AMPK level in paraventricular hyphalamic nuclei intact H1RKO mouse at 1 mg/kg after 3 hrs by immunohistochemistry; assay type: functional, organism-based; parameters: dose 1 mg/kg
[28] = tested on: Mus musculus; assay: Increase in phospho-AMPK level in paraventricular hyphalamic nuclei intact H1RKO mouse at 5 mg/kg after 3 hrs by immunohistochemistry; assay type: functional, organism-based; parameters: dose 5 mg/kg
[29] = tested on: Mus musculus; assay: Increase in phospho-AMPK in H1R knockout mouse at 3 mg/kg by immunohistochemistry; assay type: functional, organism-based; parameters: dose 3 mg/kg

O=C1CCc2ccc(OCCCCN3CCN(c4cccc(Cl)c4Cl)CC3)cc2N1 [ARIPIPRAZOLE]
Activity [1]: inactive
Activity [2]: inactive
IC50 [3]: > 3 µM

Cc1cc2c(s1)Nc1ccccc1N=C2N1CCN(C)CC1
Activity [1]: Active
Activity [4]: inactive
Activity [5]: inactive
Activity [2]: Active
Activity [6]: inactive
Activity [7]: inactive
Activity [8]: inactive
Activity [9]: inactive

OCCOCCN1CCN(C2=Nc3ccccc3Sc3ccccc32)CC1
Activity [1]: Active
Activity [2]: Active

Cc1ccc(/C(=C\CN2CCCC2)c2ccccn2)cc1
Activity [1]: Active
Activity [10]: Active

O=C(CCCN1CCC(O)(c2ccc(Cl)cc2)CC1)c1ccc(F)cc1
Activity [1]: inactive
Activity [2]: inactive

Cc1nc2n(c(=O)c1CCN1CCC(c3noc4cc(F)ccc34)CC1)CCCC2
Activity [1]: inactive

O=C1Cc2cc(CCN3CCN(c4nsc5ccccc45)CC3)c(Cl)cc2N1
Activity [1]: inactive
Activity [2]: inactive
Activity [11]: inactive

CN1CCN(C2=Nc3cc(Cl)ccc3Nc3ccccc32)CC1 [CLOZAPINE]
Activity [1]: Active
Activity [12]: inactive
Activity [13]: Active
Activity [4]: inactive
Activity [14]: Active
Activity [15]: 20%
Activity [5]: inactive
Activity [16]: inactive
Activity [17]: Active
Activity [18]: Active
Activity [2]: Active
Activity [6]: inactive
Activity [19]: inactive
Activity [20]: Active
Activity [21]: Active
Activity [7]: inactive
Activity [22]: Active
Activity [8]: inactive
Activity [23]: Active
Activity [24]: inactive
Activity [25]: Active
Activity [26]: inactive
Activity [27]: Active
Activity [28]: Active
Activity [29]: inactive
Activity [9]: inactive
